Drawing on ChEMBL document CHEMBL1201862, “PubChem BioAssay data set” (2004), this text covers IC50, EC50 and CC50 for 20 compounds.

Assay [1] in a line: M. tuberculosis H37Rv growth inhibitors, H37Rv strain (AID 1626). Format: functional.
Assay [2] deals with Peroxisome proliferator-activated receptor gamma/Nuclear receptor coactivator 3 (Homo sapiens, UniProt P37231). Format: functional.
The target in assay [3] is Peroxisome proliferator-activated receptor gamma/Nuclear receptor coactivator 1 (Homo sapiens, UniProt P37231). Format: functional.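 Note: agonist potency as compounds enhance coactivator SRC-1 recruitment to PPARgamma.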
Assay [4] deals with Peroxisome proliferator-activated receptor gamma/Nuclear receptor coactivator 2 (Homo sapiens, UniProt P37231). Format: functional.
Peroxisome proliferator-activated receptor gamma/Nuclear receptor coactivator 2, sequence (P37231 whole entry): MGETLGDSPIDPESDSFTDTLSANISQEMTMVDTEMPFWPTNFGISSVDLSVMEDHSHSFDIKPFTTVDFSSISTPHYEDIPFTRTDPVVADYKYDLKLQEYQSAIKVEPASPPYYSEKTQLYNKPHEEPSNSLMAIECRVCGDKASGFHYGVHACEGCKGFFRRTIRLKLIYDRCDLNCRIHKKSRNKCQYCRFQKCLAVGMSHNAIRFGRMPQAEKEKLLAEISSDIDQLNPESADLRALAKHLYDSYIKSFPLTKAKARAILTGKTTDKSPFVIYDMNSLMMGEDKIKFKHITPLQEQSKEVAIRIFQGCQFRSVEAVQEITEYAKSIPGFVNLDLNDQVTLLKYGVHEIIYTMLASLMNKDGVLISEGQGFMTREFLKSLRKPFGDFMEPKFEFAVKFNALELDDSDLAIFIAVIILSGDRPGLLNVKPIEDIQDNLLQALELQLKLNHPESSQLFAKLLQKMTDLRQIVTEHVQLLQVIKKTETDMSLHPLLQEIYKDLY
Peroxisome proliferator-activated receptor gamma/Nuclear receptor coactivator 2, sequence (Q15596 whole entry, further chain): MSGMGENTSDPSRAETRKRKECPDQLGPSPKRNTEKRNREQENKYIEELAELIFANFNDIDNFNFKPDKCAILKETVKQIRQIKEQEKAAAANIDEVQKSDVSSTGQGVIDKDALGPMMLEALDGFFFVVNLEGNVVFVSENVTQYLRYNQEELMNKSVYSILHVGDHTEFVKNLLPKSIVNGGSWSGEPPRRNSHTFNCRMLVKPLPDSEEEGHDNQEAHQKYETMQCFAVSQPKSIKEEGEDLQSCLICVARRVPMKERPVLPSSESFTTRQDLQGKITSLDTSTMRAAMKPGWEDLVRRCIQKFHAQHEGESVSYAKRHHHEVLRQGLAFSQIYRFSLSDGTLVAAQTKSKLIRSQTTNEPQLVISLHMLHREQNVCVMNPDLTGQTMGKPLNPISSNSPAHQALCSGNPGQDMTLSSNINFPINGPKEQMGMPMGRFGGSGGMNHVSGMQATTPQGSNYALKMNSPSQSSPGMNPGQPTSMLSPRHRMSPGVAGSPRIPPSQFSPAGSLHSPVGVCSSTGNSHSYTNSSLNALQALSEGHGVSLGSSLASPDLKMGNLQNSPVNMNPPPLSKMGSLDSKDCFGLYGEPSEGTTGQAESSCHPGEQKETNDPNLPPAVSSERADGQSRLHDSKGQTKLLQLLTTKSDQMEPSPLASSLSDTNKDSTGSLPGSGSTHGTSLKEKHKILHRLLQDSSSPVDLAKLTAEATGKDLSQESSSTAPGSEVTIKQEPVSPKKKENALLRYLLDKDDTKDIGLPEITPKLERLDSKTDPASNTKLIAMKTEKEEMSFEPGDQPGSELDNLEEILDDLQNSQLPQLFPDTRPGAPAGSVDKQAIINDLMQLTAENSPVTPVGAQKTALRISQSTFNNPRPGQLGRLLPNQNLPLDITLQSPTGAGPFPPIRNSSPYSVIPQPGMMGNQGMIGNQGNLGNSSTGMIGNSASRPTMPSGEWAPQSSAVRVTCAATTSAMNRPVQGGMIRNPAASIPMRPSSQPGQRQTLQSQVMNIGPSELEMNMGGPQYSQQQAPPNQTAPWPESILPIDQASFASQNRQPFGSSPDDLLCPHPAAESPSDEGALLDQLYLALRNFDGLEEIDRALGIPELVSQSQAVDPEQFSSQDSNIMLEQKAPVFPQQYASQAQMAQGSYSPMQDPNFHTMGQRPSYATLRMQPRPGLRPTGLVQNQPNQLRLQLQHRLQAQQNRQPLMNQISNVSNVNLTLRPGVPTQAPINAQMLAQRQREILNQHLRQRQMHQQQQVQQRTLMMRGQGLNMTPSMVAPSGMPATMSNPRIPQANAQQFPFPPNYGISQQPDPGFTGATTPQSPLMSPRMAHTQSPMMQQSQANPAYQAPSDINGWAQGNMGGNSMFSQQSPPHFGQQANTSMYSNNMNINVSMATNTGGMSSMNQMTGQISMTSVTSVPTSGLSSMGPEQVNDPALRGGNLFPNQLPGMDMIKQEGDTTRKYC
Assay [5] concerns the target T1, Polyadenylate-binding protein 1 (Homo sapiens, UniProt P11940). Put plainly: MLLE binding blockers, Cy5 peptide tracer – biochemical, fluorescence polarization, Cy5-PAM2 peptide, secondary, miRNA deadenylation inhibitor project, dose response (AID 602260). Format: functional. The note with it: read-out: IC50_Mean. In general terms: In fluorescence polarisation assays a small probe gives low polarisation when free and higher when bound to something large.

For assay [6], the target named is T2, Mannose-6-phosphate isomerase (Homo sapiens, UniProt P34949).
T2 sequence (P34949 whole entry): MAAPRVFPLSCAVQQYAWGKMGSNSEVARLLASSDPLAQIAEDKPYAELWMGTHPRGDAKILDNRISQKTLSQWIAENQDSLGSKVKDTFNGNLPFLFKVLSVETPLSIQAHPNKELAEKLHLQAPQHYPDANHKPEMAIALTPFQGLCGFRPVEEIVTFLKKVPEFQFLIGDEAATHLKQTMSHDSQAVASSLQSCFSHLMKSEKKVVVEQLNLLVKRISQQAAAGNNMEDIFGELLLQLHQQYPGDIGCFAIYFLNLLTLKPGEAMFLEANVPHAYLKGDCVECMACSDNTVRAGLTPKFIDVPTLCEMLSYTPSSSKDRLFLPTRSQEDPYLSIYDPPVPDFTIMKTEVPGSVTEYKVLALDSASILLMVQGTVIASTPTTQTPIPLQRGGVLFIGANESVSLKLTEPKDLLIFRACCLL
Put plainly: MPI inhibition at elevated mannose 6-phosphate – biochemical, fluorescence intensity, high mannose 6-phosphate, primary screen (AID 1220).

The target in assay [7] is T1, Polyadenylate-binding protein 1. Briefly: MLLE domain peptide-binding blockers, IC50 – biochemical, fluorescence polarization, FITC-PAM2 peptide, dose response (AID 602259). The class given is functional. Conditions: read-out: IC50_Mean.
Assay [8] addresses T3, Leucine aminopeptidase (Plasmodium falciparum 3D7, UniProt Q8IL11).
T3 sequence (Q8IL11 whole entry): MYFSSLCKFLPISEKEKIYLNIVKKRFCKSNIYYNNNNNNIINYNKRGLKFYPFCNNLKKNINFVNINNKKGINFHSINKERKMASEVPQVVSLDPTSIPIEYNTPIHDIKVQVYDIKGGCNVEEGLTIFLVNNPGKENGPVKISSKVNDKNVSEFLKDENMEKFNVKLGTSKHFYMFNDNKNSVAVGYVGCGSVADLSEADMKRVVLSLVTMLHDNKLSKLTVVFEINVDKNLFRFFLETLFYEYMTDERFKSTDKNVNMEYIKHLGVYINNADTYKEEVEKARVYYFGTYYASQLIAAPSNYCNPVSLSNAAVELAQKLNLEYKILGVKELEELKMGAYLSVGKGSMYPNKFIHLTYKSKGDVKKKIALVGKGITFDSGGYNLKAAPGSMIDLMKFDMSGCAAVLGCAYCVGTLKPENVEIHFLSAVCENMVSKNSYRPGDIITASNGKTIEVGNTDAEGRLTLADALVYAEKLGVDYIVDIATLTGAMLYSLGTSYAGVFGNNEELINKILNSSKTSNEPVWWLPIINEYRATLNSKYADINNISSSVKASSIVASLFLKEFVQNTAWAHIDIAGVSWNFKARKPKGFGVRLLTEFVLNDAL
Briefly: P. falciparum M17LAP inhibitors, primary screen, biochemical, fluorogenic H-Leu-NHMec substrate, 1536-well (AID 1619). Format: functional.

For assay [9], the target named is T4, Aminopeptidase N (Plasmodium falciparum FcB1/Columbia, UniProt O96935).
T4 sequence (O96935 whole entry): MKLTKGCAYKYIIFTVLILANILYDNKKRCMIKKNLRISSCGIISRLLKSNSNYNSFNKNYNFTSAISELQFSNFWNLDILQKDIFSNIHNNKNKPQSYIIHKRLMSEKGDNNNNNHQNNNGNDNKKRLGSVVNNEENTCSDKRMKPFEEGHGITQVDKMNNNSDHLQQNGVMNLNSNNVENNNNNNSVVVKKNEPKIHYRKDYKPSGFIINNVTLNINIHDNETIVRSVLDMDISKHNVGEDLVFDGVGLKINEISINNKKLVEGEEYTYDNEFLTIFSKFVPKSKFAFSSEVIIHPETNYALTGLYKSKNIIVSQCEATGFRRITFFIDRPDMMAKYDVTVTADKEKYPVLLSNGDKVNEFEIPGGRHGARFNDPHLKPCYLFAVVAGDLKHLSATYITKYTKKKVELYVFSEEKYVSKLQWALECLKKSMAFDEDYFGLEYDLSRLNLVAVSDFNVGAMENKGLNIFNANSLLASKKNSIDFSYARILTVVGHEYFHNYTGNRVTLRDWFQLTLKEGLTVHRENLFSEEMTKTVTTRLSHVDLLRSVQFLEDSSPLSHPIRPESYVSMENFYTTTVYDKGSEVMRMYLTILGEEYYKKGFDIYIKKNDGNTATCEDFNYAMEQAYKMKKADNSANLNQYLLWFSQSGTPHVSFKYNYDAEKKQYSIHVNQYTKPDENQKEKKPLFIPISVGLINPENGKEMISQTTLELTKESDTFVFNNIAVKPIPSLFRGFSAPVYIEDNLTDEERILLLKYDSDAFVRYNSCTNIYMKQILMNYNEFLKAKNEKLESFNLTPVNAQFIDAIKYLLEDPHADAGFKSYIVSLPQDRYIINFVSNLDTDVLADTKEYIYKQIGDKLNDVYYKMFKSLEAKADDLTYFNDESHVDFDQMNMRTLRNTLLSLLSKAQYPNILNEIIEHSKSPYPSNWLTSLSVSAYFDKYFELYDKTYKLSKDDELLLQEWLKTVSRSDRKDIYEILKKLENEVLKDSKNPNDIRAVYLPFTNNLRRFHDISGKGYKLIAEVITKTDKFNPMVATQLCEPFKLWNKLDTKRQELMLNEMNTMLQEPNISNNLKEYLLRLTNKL
Put plainly: malaria alanyl aminopeptidase activity blockers – biochemical, fluorogenic H-Leu-NHMec substrate, 1536-well (AID 1445). On the set-up: species or system Plasmodium falciparum 3D7, 3D7.

The target in assay [10] is T5, Oxysterols receptor LXR-beta (Homo sapiens, UniProt P55055).
T5 sequence (P55055 whole entry): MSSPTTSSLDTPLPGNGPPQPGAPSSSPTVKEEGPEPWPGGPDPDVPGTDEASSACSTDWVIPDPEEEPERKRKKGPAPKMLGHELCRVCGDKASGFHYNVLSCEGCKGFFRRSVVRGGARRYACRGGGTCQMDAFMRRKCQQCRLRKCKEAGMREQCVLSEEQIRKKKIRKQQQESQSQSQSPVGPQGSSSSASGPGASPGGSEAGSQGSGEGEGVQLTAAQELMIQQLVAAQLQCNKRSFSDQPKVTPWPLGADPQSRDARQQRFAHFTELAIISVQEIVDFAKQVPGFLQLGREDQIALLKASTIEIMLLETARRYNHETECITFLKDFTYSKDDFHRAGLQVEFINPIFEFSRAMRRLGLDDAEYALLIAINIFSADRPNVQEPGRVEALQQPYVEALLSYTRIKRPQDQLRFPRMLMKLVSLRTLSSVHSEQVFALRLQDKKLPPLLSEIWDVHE
Put plainly: LXR agonists, Gal4 luciferase reporter, dose response, counter-screen for ssDAF-12 agonist project, cell-based, luminescence, HEK293, S. stercoralis campaign (AID 720737). The class given is functional. The note with it: read-out: IC50 (the source's name).

A short description of assay [11]: Luminescence-based cell-based high throughput dose response assay to identify activators of the DAF-12 from the parasite S. stercoralis (ssDAF-12). Format: functional.
For assay [12], the target named is Beta-galactosidase (Escherichia coli, UniProt Q8VNN2). Put plainly: detection-enzyme interference by beta-gal modulators – biochemical, E. coli enzyme, set 3, artefact control for CCR6 antagonist project, dose response (AID 504712). The class given is functional.
Assay [13] in a line: Vero E6 cell cytotoxicity, dose response, cytotoxicity control for non-replicating M. tuberculosis project, secondary assay (AID 492998). The class given is functional, VeroE6. The note with it: Vero C1008.
The nature of assay [14]: cells. The class given is functional.
Assay [15] is described as follows: THP-1 cell cytotoxicity, dose response, cytotoxicity control for non-replicating M. tuberculosis project (AID 489025). Format: functional.
Assay [16] relates to Streptococcus sp. 'group A'. Put plainly: Streptococcus pyogenes SK(-)GAS viability under kanamycin – luminescence, BacTiterGlo, confirmation, counter-screen for streptokinase expression inhibitor project, dose response (AID 1900). The class given is functional, organism-based. On the technique in general: Counterscreens check selectivity or assay interference.
Assay [17] deals with T6, Streptokinase A (Streptococcus pyogenes serotype M1, UniProt P10520).
T6 sequence (P10520 whole entry): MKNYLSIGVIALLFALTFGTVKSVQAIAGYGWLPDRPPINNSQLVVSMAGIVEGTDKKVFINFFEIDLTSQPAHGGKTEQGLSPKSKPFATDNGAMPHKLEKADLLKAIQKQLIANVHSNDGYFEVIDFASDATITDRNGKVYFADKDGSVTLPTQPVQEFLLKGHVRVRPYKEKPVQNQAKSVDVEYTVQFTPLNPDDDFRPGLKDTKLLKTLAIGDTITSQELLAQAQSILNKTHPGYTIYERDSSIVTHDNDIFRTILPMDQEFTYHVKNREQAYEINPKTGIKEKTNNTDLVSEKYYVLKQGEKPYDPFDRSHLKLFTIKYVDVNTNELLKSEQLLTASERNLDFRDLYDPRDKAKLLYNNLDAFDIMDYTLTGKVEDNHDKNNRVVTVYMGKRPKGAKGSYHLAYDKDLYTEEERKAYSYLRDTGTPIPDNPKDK
Put plainly: viability-normalized secreted streptokinase activity reduction – plasminogen activation absorbance, OD405, dose response (AID 1914).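 Note: secreted streptokinase activity via plasminogen activation per viability signal from cell pellet.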 Format: functional, Streptococcus pyogenes M1 GAS.

Assay [18] has as its system Streptococcus. Briefly: GAS UMAA2166 growth inhibition – luminescence, BacTiterGlo, counter-screen for streptokinase expression inhibitor project, dose response (AID 1915).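 Note: potency for reduction of bacterial viability or growth.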 Format: functional, organism-based.
For assay [19], the target named is Induced myeloid leukemia cell differentiation protein Mcl-1 (Homo sapiens, UniProt Q07820). The class given is functional.
Induced myeloid leukemia cell differentiation protein Mcl-1, sequence (Q07820 whole entry): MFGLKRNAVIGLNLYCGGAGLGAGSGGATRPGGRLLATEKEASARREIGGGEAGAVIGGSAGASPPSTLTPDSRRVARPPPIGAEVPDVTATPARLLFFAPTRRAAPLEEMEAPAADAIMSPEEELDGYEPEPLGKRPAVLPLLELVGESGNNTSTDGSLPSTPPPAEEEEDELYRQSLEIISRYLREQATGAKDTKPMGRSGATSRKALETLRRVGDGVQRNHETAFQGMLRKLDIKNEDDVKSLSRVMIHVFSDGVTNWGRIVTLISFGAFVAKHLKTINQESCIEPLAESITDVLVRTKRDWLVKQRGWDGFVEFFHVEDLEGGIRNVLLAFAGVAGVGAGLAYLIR

Activity calls are given as the source filed them. A value given as a limit tells only on which side of the number the result lay.

Peroxisome proliferator-activated receptor gamma/Nuclear receptor coactivator 3, sequence (P37231 whole entry): as the sequence (P37231 whole entry) above
Peroxisome proliferator-activated receptor gamma/Nuclear receptor coactivator 3, sequence (Q9Y6Q9 whole entry, further chain): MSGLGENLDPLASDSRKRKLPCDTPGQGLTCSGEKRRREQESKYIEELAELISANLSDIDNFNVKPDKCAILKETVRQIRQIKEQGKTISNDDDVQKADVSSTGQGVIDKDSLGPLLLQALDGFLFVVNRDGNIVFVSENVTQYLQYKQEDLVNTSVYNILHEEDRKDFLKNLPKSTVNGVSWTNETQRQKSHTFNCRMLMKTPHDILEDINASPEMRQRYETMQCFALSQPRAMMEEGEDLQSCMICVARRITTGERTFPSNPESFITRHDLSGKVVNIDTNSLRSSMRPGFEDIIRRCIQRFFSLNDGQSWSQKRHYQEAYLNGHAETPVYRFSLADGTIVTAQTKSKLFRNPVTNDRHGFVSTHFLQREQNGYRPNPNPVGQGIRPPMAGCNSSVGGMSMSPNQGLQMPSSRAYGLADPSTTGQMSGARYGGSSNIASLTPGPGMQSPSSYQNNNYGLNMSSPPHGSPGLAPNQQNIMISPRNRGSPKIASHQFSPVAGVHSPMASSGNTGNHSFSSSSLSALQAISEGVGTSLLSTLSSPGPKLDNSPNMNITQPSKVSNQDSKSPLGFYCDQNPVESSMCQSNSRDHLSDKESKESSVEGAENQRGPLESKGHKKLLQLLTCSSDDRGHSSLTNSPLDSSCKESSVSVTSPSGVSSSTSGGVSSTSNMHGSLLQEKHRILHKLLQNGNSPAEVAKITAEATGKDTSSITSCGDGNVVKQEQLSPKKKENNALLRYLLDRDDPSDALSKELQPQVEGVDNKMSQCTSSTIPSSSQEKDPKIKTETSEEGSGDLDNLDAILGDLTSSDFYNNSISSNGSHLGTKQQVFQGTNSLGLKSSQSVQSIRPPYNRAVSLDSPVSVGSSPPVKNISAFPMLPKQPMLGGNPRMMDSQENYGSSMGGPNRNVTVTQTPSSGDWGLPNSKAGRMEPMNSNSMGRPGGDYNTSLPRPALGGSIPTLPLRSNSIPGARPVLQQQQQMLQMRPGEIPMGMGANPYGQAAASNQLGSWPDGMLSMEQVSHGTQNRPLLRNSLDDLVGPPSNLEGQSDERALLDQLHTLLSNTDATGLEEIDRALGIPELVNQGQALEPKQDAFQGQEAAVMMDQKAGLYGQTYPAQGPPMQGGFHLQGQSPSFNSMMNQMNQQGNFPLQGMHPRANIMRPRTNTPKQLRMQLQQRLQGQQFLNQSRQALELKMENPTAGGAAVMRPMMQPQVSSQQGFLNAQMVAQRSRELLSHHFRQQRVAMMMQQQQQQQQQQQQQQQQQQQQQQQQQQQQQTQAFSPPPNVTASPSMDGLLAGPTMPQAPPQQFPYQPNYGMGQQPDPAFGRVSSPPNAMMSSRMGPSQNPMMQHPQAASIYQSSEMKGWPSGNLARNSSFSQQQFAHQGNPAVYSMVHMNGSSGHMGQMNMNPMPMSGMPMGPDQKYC
T1 sequence (P11940 whole entry): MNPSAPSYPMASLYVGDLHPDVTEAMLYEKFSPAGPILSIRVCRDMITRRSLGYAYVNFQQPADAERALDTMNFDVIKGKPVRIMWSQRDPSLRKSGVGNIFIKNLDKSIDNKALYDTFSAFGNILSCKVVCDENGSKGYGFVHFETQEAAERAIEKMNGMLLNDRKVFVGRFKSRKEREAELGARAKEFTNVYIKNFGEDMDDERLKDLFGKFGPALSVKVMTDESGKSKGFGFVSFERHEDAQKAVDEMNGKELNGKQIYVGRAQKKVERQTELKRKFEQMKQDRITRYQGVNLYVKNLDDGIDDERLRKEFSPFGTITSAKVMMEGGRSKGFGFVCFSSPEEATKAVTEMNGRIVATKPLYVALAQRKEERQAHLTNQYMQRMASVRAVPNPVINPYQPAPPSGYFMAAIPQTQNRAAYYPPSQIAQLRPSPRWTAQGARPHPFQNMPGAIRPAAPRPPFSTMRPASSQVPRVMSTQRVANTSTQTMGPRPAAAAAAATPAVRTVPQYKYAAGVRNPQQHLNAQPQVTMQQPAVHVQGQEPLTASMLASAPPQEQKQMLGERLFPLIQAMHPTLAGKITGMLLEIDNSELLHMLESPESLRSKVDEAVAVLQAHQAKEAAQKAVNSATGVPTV

As for `Nc1nc2c(s1)COc1ccccc1-2`, in assay [1], the IC50 is > 100 µM (active).
Consider `CCOC(=O)C1CCCN(S(=O)(=O)c2cc(Br)cc3c2N(C(=O)C2CC2)CC3)C1` (stereo not given), for which the EC50 in assay [2], in assay [3] and in assay [4] was > 79.4 µM (not active) each time.
In the case of `Nc1cccnc1Sc1cccc(Cl)c1`, the results for the IC50 in assay [5], in assay [6] and in assay [7] were > 66 µM (inactive), > 50 µM (not active) and > 66 µM (inactive), respectively.
Turning to `CCOC(=O)c1c(NC(=O)CSc2nnc(C)c(=O)[nH]2)sc2c1CCCC2`, the results for the IC50 in assay [8] and in assay [9] were 9.34 µM (active) and 62.1 µM (active), respectively.
As for `O=C(CCNc1ccc(Cc2ccncc2)cc1)c1ccc([N+](=O)[O-])cc1`, the EC50 in assay [10] was > 67.5 µM (inactive). For the same compound, the IC50 was 15.8 µM (active) in assay [6] and > 67.5 µM (inactive) in assay [11].
Regarding `O=C(Nc1nc2ccccc2s1)C1c2ccccc2Oc2ccccc21`, the IC50 in [1] was > 100 µM (active).
Take `CCOC(=O)c1ccccc1NC(=O)c1cn(-c2ccc(C)c(C)c2)c(=O)c2ccccc12`: the EC50 in [2], in assay [3] and in assay [4] was > 79.4 µM (not active) throughout.
Take `Cc1cc(C)c(C(=O)CSc2nnc(-c3ccccc3Br)o2)cc1C`: the EC50 in [2] was 69.8 µM (not active); in assay [3] it was 51.9 µM (not active); in [4] it was 32.6 µM (not active).
For the compound `O=C(c1cc(COc2ccc(F)cc2Cl)on1)N1CCCC(OCc2cccnc2)C1` (stereo not given), the EC50 in assay [2], in [3] and in [4] was > 79.4 µM (not active) in each case.
For the compound `O=C(Nc1nccs1)c1ccc(NC(=O)C2CC=CCC2C(=O)O)cc1` (stereo not given), the IC50 in [8] is 23.2 µM (active).
On to `COc1ccc(NC(=O)CSc2nnc[nH]2)c([N+](=O)[O-])c1`, for which the IC50 in assay [8] was 17 µM (active).
Take `CC1Cc2ccccc2N1C(=S)NC(=O)c1cccc(Br)c1` (stereo not given): in assay [12], the IC50 is > 66.6 µM (inactive).
As to `COC(=O)c1c(NC(=O)C2C3C=CC(CC3)C2C(=O)O)sc(C)c1C` (stereo not given), the IC50 in assay [8] is 19 µM (active).
Regarding `COc1ccc(-c2cc(C(F)F)n3ncc(C(=O)N4CCCc5ccccc54)c3n2)cc1`, the EC50 in [2], in assay [3] and in [4] was > 79.4 µM (not active) each time.
In general, CC50 refers to the concentration giving 50% cytotoxicity. For the compound `Clc1cccc(OCCN2CCN(CCOc3cccc(Cl)c3)CC2)c1`, the CC50 was > 20 µM (active) in assay [13] and 31.3 µM (active) in assay [15]. In assay [14], the IC50 is 23.9 µM (active).
Take `CCOc1ccc(NC(=O)CSc2nc(C)cc(C)n2)cc1`: in [8], the IC50 was 4.3 µM (active).
Turning to `CCOC(=O)c1ccc(NC(=O)CCNC(=O)c2ccc([N+](=O)[O-])cc2)cc1`, the IC50 in [1] is > 100 µM (active).
Turning to `C/C(=N\NC(=S)NCCc1ccccc1)c1ccc(Cl)cc1Cl`, the EC50 was 4.66 µM (active) in assay [16], > 150 µM (inconclusive) in assay [17] and 21.2 µM (active) in assay [18]. In addition, the IC50 in [12] was > 66.6 µM (inactive).
As for `Cc1nn(-c2ccccc2)c(Cl)c1/C=N/O`, the IC50 in assay [1] is > 100 µM (active).
As to `O=C(CNC(=O)C(c1ccccc1)c1ccccc1)N/N=C/c1cccnc1`, the IC50 in assay [19] is listed as 5.72 µM (not active).
